Measured values: US7468255B2, “Method for assaying for natural killer, cytotoxic T-lymphocyte and neutrophil-mediated killing of target cells using real-time microelectronic cell sensing technology” (ACEA Biosciences, priority 2002, dated 2008)

Tests used:
[1] = tested on: various cell types (listed in Table 1); test: RT-CES profiling of dynamic cell responses to anti-cancer drugs; type: cell-based; settings: for cell index curve pattern: cell lines of Table 1
Experimental: FIGS. 10A and B show the responses of various cell types (listed in Table 1) to olomoucine treatment as monitored using a cell-substrate imepdnace monitoring system of the presnet invention. The cellular responses were continuously monitored at 15 or 30 or 60 minutes time interval before and after treatment with olomoucine. […] Take the treatment of olomoucine at 100 uM as an example. […] The “near-constant” cell index curves were also observed for cells treated with roscovitine, which is another compound causing cell cycle arrest. The cell index curves shown in FIGS. 10A and 10B are strikingly different from the cell index curves shown in FIGS. 9A and 9B, and FIGS. 11A and 11B, where compounds follow different mechanism of compound action.
The cellular responses were continuously monitored at 15 or 30 or 60 minutes time interval before and after treatment with doxorubicin. […] Take the treatment of doxoorubincin at 3.13 uM as an example. For most of cell types tested, initially after the treatment, cell index increased with time in similar way to the cell index from DMSO control wells. After 10-20 hrs, depending on cell type, the cell index reached a peak and started decreasing with time. From that time on, the cell index monotonically decreases. […] Both Doxorubicin and 5-Fluorouacil act on cells through effects on DNA replication or topology.
The cellular responses were continuously monitored at 15 or 30 or 60 minutes time interval before and after treatment with paclitaxel. […] Take the treatment of palitaxel at 0.78-12.5 nM range as examples. […] For one particular cell index curve, after the cell index reached a minimum, it then reversed its decreasing trend and started to increase. […] All these compounds—i.e., paclitaxel, vinblastin and colcemid, are so called mitotic poisons and follow similar mechanism of drug action. For example, both vinblastin and paclitaxel act on microtubule dynamics within a cell.
In this study, we used the RT-CES system to dynamically monitor cancer cell responses to chemotherapeutic compounds with characterized mechanisms, and to profile the specific cell response patterns. Thirteen cancer cell lines including cancers of breast, prostate, lung, colon, ovary, kidney, fibroblast, and central nervous system were tested (Table 1). Each cancer cell type was treated with 11 chemotherapeutic compounds, classified as DNA damaging agents, protein kinase inhibitors, anti-mitotic drugs, cell cycle specific inhibitors, protein synthesis inhibitors plus a compound of unknown category (Table 2). Dynamic and dose dependent cell-compound interaction patterns were characterized and summarized for all the tested cell lines and compounds. The profiles for three drugs, doxorubicin, olomoucine and paclitaxel against a panel of 12 different cell lines are presented in FIGS. 9, 10 and 11, respectively. In addition, we characterized the biological effect of these compounds on cells by monitoring cell cycle progression, cell viability and morphological status of the cells in an attempt to correlate specific cellular response to the shape of the cell index trace (FIGS. 12, 13 and 14). Furthermore we calculated the time-dependent IC-50 values for each compound against the various cell lines (FIG. 15) and developed an algorithm to calculate Cell Change Index to profile the dynamic cell response of the different chemotherapeutic agents across the different cell lines. Cell Change Index was calculated for the dynamic RT-CES responses of different cell lines to different chemotherapeutic agents using the definitions described above. Based on the time-dependent values of CCI, each CCI value region across the time scale is represented by black-white shading-based coding. […]

A549 cells [2] = type: cell-based; settings: for effect of inhibitor alone on A549 baseline: A549 target cells without NK cells
Experimental: (§1) In order to observe the kinetics of drug interaction with target cells, A549 non-small lung cancer cells were seeded in ACEA 96× e-plate™ and continuously monitored until the cells reached the log growth phase at which point different concentrations of paclitaxel were added to the cells at the indicated final concentration. […] Remarkably, the cells recover from the initial cytotoxic effect of the drug and start to re-proliferate. While it remains to be determined if this phenomenon is due to metabolism and inactivation of paclitaxel or due to the emergence of paclitaxel-resistant subpopulation, this experiment clearly exemplifies the tremendous advantage of real-time measurement which is offered by the RT-CES system and allows the user to the opportunity to observe and assess the entire history of drug interaction with the target cells which provides further information in addition to cell viability or cytotoxicity. The phenomenon observed in FIG. 20A would've been easily missed by traditional single-point assays such as MTT.
Yet another major advantage of using the RT-CES system to continually monitor the interaction of drugs with target cells is that the user can obtain insight into the mechanism of action of the drug of interest. […] The cells were treated with either DMSO as the vehicle control or with 100 μM Olomoucine which is a CDK inhibitor and induces cell cycle arrest either at G1→S transition or at the G2→M transition, depending on the cell line. […] The control cells treated with DMSO continue to proliferate until they reach confluence, at which time they are contact inhibited and the Cell Index recording levels off. […]. Taken together, using the RT-CES system to dynamically monitor drug interaction with the target cells offers the user the opportunity to understand the mechanism of drug action and its mode of interaction with the target cell.

[3] = tested on: NK-92-mediated cytolysis of A549 cells; test: Inhibition of NK-mediated cytolysis of target cells by signaling pathway inhibitors (RT-CES); type: cell-based, human; settings: NK-92 pre-incubated with inhibitor, E/T 16:1
Experimental: FIG. 31. Specificity of NK-92 mediated cytolysis of target cells. (A) A549 cells were seeded in the wells of E-plates. Twenty four hours after seeding NK-cells at a density of 16:1 (E/T ratio) were pre-incubated with the different concentrations of the MEK inhibitor PD 98059 for thirty minutes and then added to A549 cells at the indicated time point (arrow). The viability of A549 cells were continually monitored using the RT-CES system. (B) The extent of NK-92 mediated cytolystic activity in the presence of MEK inhibitor was calculated at the indicated times post-NK addition as described in materials and methods section. (C) The effect of P13 Kinase inhibitor Wortmannin on NK-92 mediated cytolysis of A549 cells. […] (D) Percent cytolytic activity of NK-92 cells was calculated at the end of the experiment described in (C).
In this example, a microelectronic sensor-based platform, the RT-CES (real time electronic sensing) system, is introduced for label free assessment of natural killer (NK) cell-mediated cytolytic activity. The RT-CES system was used to dynamically and quantitatively monitor NK-mediated cytolysis of 9 different target cell lines, including cancer cell lines commonly used in laboratories. […] Cell growth was dynamically monitored using the RT-CES system for a period of 24-34 hours, depending on the experiment until they reached log growth phase and formed a monolayer. […]

A549 cells [4] = test: Flow cytometry cell cycle analysis of A549 cells; type: cell-based, Human; settings: 100 μM
Cos-7 cells = test: RT-CES monitoring of morphological changes in Cos-7 cells; type: cell-based; settings: serum starved Cos-7 cells; 50 nanograms/mL
Experimental: Cells were seeded in wells of a 16 well monitoring device (16× E-Plate) of the present invention that engaged a device station of a cell-substate monitoring system. The device station was positioned in an incubator held at 37 degrees C. and 5% CO2. The cells were serum starved for 8 hours and then stimulated with 50 nanograms/mL of EGF. […] Impedance was monitored at 3 minute intervals for 2 hours and then at 1 hour intervals for 14 hours. The cell index was calculated by the system and plotted as a function of time. […] The arrow indicates the point of EGF addition.

H460 cells = test: RT-CES time-dependent cell index of drug-treated H460 cells; type: cell-based, human
Experimental: The device was positioned on a device station that was located in an incubator maintaining conditions of 37 degrees C. and 5% CO2. […] The cell-substrate impedance monitoring system calculated the cell index at each time point monitored and plotted the cell index as a function of time.
The device was positioned on a device station that was located in an incubator maintaining conditions of 37 degrees C. and 5% CO2.

A549 cells [5] = test: Annexin V staining of A549 cells; type: cell-based, Human; settings: 12.5 nM for 20 hours
Experimental: FIG. 20. Dynamic monitoring of drug interaction with target cells using a cell-substrate imepdnace monitoring system of the presnet invention. (A) A549 cells were seeded in a device of present invention at a density of 10,000 cells per well and the cells were continuously monitored up to 24 hours at which point paclitaxel was added at the indicated final concentrations. (B) Annexin V staining of A549 cells treated with DMSO or 12.5 nM paclitaxel for 20 hours.
as §1, with “The phenomenon observed in FIG. 20A would've been easily missed by traditional single-point assays such as MTT.” left out

CC[C@H](CO)Nc1nc(NCc2ccccc2)c2ncn(C(C)C)c2n1 [roscovitine]
cell index curve pattern [1]: near-constant

COC[C@H]1OC(=O)c2coc3c2[C@@]1(C)C1=C(C3=O)[C@@H]2CCC(=O)[C@@]2(C)C[C@H]1OC(C)=O [Wortmannin]
effect of inhibitor alone on A549 baseline (A549 cells [2]): minimal effect on the baseline | inhibition of NK-92-mediated cytolysis of A549 cells [3]: dose-dependently inhibited

COc1cccc2c1C(=O)c1c(O)c3c(c(O)c1C2=O)C[C@@](O)(C(=O)CO)C[C@@H]3O[C@H]1C[C@H](N)[C@H](O)[C@H](C)O1 [doxorubicin]
time after treatment at which cell index reached a peak and started decreasing ([1]; 3.13 uM, most cell types tested, depending on cell type): 10 to 20 h

CN[C@H]1CCc2cc(OC)c(OC)c(OC)c2-c2ccc(OC)c(=O)cc21 [colcemid]
cell index curve pattern [1]: going down and then going up

O=c1[nH]cc(F)c(=O)[nH]1 [5-Fluorouracil]
cell index curve pattern [1]: going up first and then going down

CC[C@]1(O)C[C@@H]2CN(CCc3c([nH]c4ccccc34)[C@@](C(=O)OC)(c3cc4c(cc3OC)N(C)[C@H]3[C@@](O)(C(=O)OC)[C@H](OC(C)=O)[C@]5(CC)C=CCN6CC[C@]43[C@@H]65)C2)C1 [vinblastin]
cell index curve pattern [1]: going down and then going up

COc1cccc(-c2cc(=O)c3ccccc3o2)c1N [PD98059]
effect of inhibitor alone on A549 baseline (A549 cells [2]): minimal effect on the baseline | inhibition of NK-92-mediated cytolysis of A549 cells [3]: dose-dependently inhibited

Cn1cnc2c(NCc3ccccc3)nc(NCCO)nc21 [olomoucine]
cell index response ([1]; 100 uM, significant number of cell types tested, for some length of time (10, 20 or 30 hrs)): near-constant cell index | Cell Index trace (A549 cells [2]; exponentially growing A549 cells, 100 μM): level off and remain in a steady state | cell cycle analysis by flow cytometry (A549 cells [4]): cell cycle arrest at the G2→M transition

epidermal growth factor [EGF]
cell index response (morphological change) (Cos-7 cells): initial jump in cell index

CC(=O)O[C@H]1C(=O)[C@@]2(C)[C@H]([C@H](OC(=O)c3ccccc3)[C@]3(O)C[C@H](OC(=O)[C@H](O)[C@@H](NC(=O)c4ccccc4)c4ccccc4)C(C)=C1C3(C)C)[C@]1(OC(C)=O)CO[C@@H]1C[C@@H]2O [paclitaxel]
time over which cell index exhibited a near-constant value (H460 cells; 33 nM): about 15 hours | cell index change after compound addition (H460 cells; concentration between 67 nM and 500 nM): gradual decrease in cell index | duration of initial decrease in cell index ([1]; 0.78-12.5 nM): 15 to 20 h | duration of initial cell index decrease before cell index increase ([1]; nM concentration, varies between cell types): about 15 hrs | effect on A549 cell index (A549 cells [2]; human): initially induces a cytotoxic effect | Annexin V staining (A549 cells [5]): cell death
